From PubChem BioAssay (NCI)
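Results reflect a 48-hour exposure of cells in 96-well plates to compound at five concentrations. TGI: concentration producing complete growth inhibition.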

Assays:
Experiment in all cases: growth of human tumour cells (NCI), 48 h
786-0 renal = system: 786-0 renal
A549 NSCLC = system: A549 NSCLC
ACHN renal = system: ACHN renal
CAKI-1 renal = system: CAKI-1 renal
CCRF-CEM leukemia = system: CCRF-CEM leukemia
COLO 205 colon = system: COLO 205 colon
DLD-1 colon = system: DLD-1 colon
DMS 114 small cell lung = system: DMS 114 small cell lung
DMS 273 small cell lung = system: DMS 273 small cell lung
EKVX NSCLC = system: EKVX NSCLC
HCT-116 colon = system: HCT-116 colon
HCT-15 colon = system: HCT-15 colon
HL-60(TB) leukemia = system: HL-60(TB) leukemia
HOP-18 NSCLC = system: HOP-18 NSCLC
HOP-62 NSCLC = system: HOP-62 NSCLC
HOP-92 NSCLC = system: HOP-92 NSCLC
HT29 colon = system: HT29 colon
IGROV1 ovarian = system: IGROV1 ovarian
K-562 leukemia = system: K-562 leukemia
KM20L2 colon = system: KM20L2 colon
LOX IMVI melanoma = system: LOX IMVI melanoma
M14 melanoma = system: M14 melanoma
M19-MEL melanoma = system: M19-MEL melanoma
MALME-3M melanoma = system: MALME-3M melanoma
MOLT-4 leukemia = system: MOLT-4 leukemia
NCI-H23 lung = system: NCI-H23 lung
NCI-H460 lung = system: NCI-H460 lung
OVCAR-3 ovarian = system: OVCAR-3 ovarian
OVCAR-4 ovarian = system: OVCAR-4 ovarian
OVCAR-5 ovarian = system: OVCAR-5 ovarian
OVCAR-8 ovarian = system: OVCAR-8 ovarian
RPMI-8226 leukemia = system: RPMI-8226 leukemia
RXF 393 renal = system: RXF 393 renal
RXF-631 renal = system: RXF-631 renal
SF-295 CNS = system: SF-295 CNS
SF-539 CNS = system: SF-539 CNS
SK-MEL-2 melanoma = system: SK-MEL-2 melanoma
SK-MEL-28 melanoma = system: SK-MEL-28 melanoma
SK-MEL-5 melanoma = system: SK-MEL-5 melanoma
SK-OV-3 ovarian = system: SK-OV-3 ovarian
SN12C renal = system: SN12C renal
SNB-19 CNS = system: SNB-19 CNS
SNB-75 CNS = system: SNB-75 CNS
SNB-78 CNS = system: SNB-78 CNS
SW-620 colon = system: SW-620 colon
TK-10 renal = system: TK-10 renal
U251 CNS = system: U251 CNS
UACC-257 melanoma = system: UACC-257 melanoma
UACC-62 melanoma = system: UACC-62 melanoma
UO-31 renal = system: UO-31 renal
XF 498 CNS = system: XF 498 CNS
A498 renal = system: A498 renal
HCC-2998 colon = system: HCC-2998 colon
KM12 colon = system: KM12 colon
LXFL 529 NSCLC = system: LXFL 529 NSCLC
NCI-H522 lung = system: NCI-H522 lung
SF-268 CNS = system: SF-268 CNS
SR leukemia = system: SR leukemia

SMILES: O=C(NC(=O)c1cn(CCN(CCO)C(=O)NCCCCCCNC(=O)N(CCO)CCn2cc(C(=O)NC(=O)OCc3ccccc3)c(=O)[nH]c2=O)c(=O)[nH]c1=O)OCc1ccccc1
- TGI (786-0 renal): > 100 µM
- TGI (A549 NSCLC): > 100 µM
- TGI (ACHN renal): > 100 µM
- TGI (CAKI-1 renal): > 100 µM
- TGI (CCRF-CEM leukemia): > 100 µM
- TGI (COLO 205 colon): > 100 µM
- TGI (DLD-1 colon): > 100 µM
- TGI (DMS 114 small cell lung): > 100 µM
- TGI (DMS 273 small cell lung): > 100 µM
- TGI (EKVX NSCLC): > 100 µM
- TGI (HCT-116 colon): > 100 µM
- TGI (HCT-15 colon): > 100 µM
- TGI (HL-60(TB) leukemia): > 100 µM
- TGI (HOP-18 NSCLC): > 100 µM
- TGI (HOP-62 NSCLC): > 100 µM
- TGI (HOP-92 NSCLC): > 100 µM
- TGI (HT29 colon): > 100 µM
- TGI (IGROV1 ovarian): > 100 µM
- TGI (K-562 leukemia): > 100 µM
- TGI (KM20L2 colon): > 100 µM
- TGI (LOX IMVI melanoma): > 100 µM
- TGI (M14 melanoma): > 100 µM
- TGI (M19-MEL melanoma): > 100 µM
- TGI (MALME-3M melanoma): > 100 µM
- TGI (MOLT-4 leukemia): > 100 µM
- TGI (NCI-H23 lung): > 100 µM
- TGI (NCI-H460 lung): > 100 µM
- TGI (OVCAR-3 ovarian): > 100 µM
- TGI (OVCAR-4 ovarian): > 100 µM
- TGI (OVCAR-5 ovarian): > 100 µM
- TGI (OVCAR-8 ovarian): > 100 µM
- TGI (RPMI-8226 leukemia): > 100 µM
- TGI (RXF 393 renal): > 100 µM
- TGI (RXF-631 renal): > 100 µM
- TGI (SF-295 CNS): > 100 µM
- TGI (SF-539 CNS): > 100 µM
- TGI (SK-MEL-2 melanoma): > 100 µM
- TGI (SK-MEL-28 melanoma): > 100 µM
- TGI (SK-MEL-5 melanoma): > 100 µM
- TGI (SK-OV-3 ovarian): > 100 µM
- TGI (SN12C renal): > 100 µM
- TGI (SNB-19 CNS): > 100 µM
- TGI (SNB-75 CNS): > 100 µM
- TGI (SNB-78 CNS): > 100 µM
- TGI (SW-620 colon): > 100 µM
- TGI (TK-10 renal): > 100 µM
- TGI (U251 CNS): > 100 µM
- TGI (UACC-257 melanoma): > 100 µM
- TGI (UACC-62 melanoma): > 100 µM
- TGI (UO-31 renal): > 100 µM
- TGI (XF 498 CNS): > 100 µM

SMILES: CC(C)CC(NC(=O)OC(C)(C)C)C(=O)Nc1ccc(Nc2nc(F)nc(-c3c4ccccc4c4n3CCS4)n2)cc1 (stereo not given)
- TGI (786-0 renal): 34.8 µM
- TGI (A498 renal): 45.8 µM
- TGI (A549 NSCLC): > 100 µM
- TGI (ACHN renal): 39.2 µM
- TGI (CAKI-1 renal): 33.1 µM
- TGI (CCRF-CEM leukemia): 16.9 µM
- TGI (COLO 205 colon): 33.3 µM
- TGI (DLD-1 colon): 36.8 µM
- TGI (DMS 114 small cell lung): 37.5 µM
- TGI (DMS 273 small cell lung): 30.6 µM
- TGI (EKVX NSCLC): 37.8 µM
- TGI (HCC-2998 colon): 35 µM
- TGI (HCT-116 colon): 46 µM
- TGI (HCT-15 colon): 30.3 µM
- TGI (HL-60(TB) leukemia): 46.5 µM
- TGI (HOP-18 NSCLC): 50.6 µM
- TGI (HOP-62 NSCLC): 37.2 µM
- TGI (HOP-92 NSCLC): 34.4 µM
- TGI (HT29 colon): 34.8 µM
- TGI (IGROV1 ovarian): 42.3 µM
- TGI (K-562 leukemia): 57.8 µM
- TGI (KM12 colon): 51.1 µM
- TGI (KM20L2 colon): 32.3 µM
- TGI (LXFL 529 NSCLC): 35.2 µM
- TGI (M14 melanoma): 35.1 µM
- TGI (MALME-3M melanoma): 38.9 µM
- TGI (MOLT-4 leukemia): 39 µM
- TGI (NCI-H23 lung): 33.1 µM
- TGI (NCI-H460 lung): 36.5 µM
- TGI (NCI-H522 lung): 29.2 µM
- TGI (OVCAR-3 ovarian): 36.7 µM
- TGI (OVCAR-5 ovarian): 44.7 µM
- TGI (OVCAR-8 ovarian): 38.3 µM
- TGI (RPMI-8226 leukemia): 58.6 µM
- TGI (RXF 393 renal): 62.1 µM
- TGI (SF-268 CNS): 61.3 µM
- TGI (SF-295 CNS): 35.9 µM
- TGI (SF-539 CNS): 37.7 µM
- TGI (SK-MEL-2 melanoma): 33.6 µM
- TGI (SK-MEL-28 melanoma): 42.7 µM
- TGI (SK-MEL-5 melanoma): 41.2 µM
- TGI (SK-OV-3 ovarian): 32.9 µM
- TGI (SN12C renal): 43.5 µM
- TGI (SNB-19 CNS): 36.9 µM
- TGI (SNB-75 CNS): 38.2 µM
- TGI (SNB-78 CNS): 44.3 µM
- TGI (SR leukemia): 34.7 µM
- TGI (SW-620 colon): 30.7 µM
- TGI (TK-10 renal): 57.5 µM
- TGI (U251 CNS): 33.3 µM
- TGI (UACC-257 melanoma): 48.3 µM
- TGI (UACC-62 melanoma): 31.9 µM
- TGI (UO-31 renal): 34.8 µM
- TGI (XF 498 CNS): 42.3 µM
